Data: the supplement of paper PMC11208160

Test: recombinant barcode read abundance after kanamycin selection (control-corrected) (log10(CPM+1)); higher = more efficient recombination; sequences stand for … in AGTGCAGAGAAAATCGGCCAGTTTTCTCTGCCTGCAGTCCGCATGCCGT…AGATTTATGCAGCGGACTGCCTTTCTCCCAAAGTGATAAACCGGACAGTATCATGGACCGGTTTTCCCGGTAATCCGTATTTGCAAGGTTGGTTTCACT; site = the 11-nt target
Summary of the method: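 Two replicates per condition were plated: chloramphenicol/ampicillin LB agar for the control, and chloramphenicol/ampicillin/kanamycin with 0.1 mM IPTG for selection. The pooled E. coli screen behind them paired targets with IS621 bridge RNA target-binding loops. Recombination efficiency is expressed from averaged, control-corrected barcode counts per million at recombinant junctions, as log10(CPM+1).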
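Note: IS621 recombinase and bridge RNA in Escherichia coli cells.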

Row | Sequence | recombinant barcode read abundance (log10)
1 | ACCCAACCTTGGGTTCTAACCTGTTGCCT (site ACCCAAGCTAG) | 0.104
2 | ATTCGAGCTTGGGTTCTAACCTGTTGCGG (site ATTCGAGCTCC) | 1.97
3 | GCGTCGGCTTGGGTTCTAACCTGTTGCCT (site GCCTCGGCTAG) | 0.177
4 | AGTCAGCCTTGGGTTCTAACCTGTTGCCT (site AGTTAGCCTAG) | 0.133
5 | AGAGGGACTTGGGTTCTAACCTGTTGCCT (site AGAGCGACTAG) | 0.0189
6 | TGGAGTCCTTGGGTTCTAACCTGTTGCTT (site TGGAGTCCTAA) | 0.605
7 | CACATCTCTTGGGTTCTAACCTGTTGCCT (site CACATCTCTAG) | 1.38
8 | GAGCCGGCTTGGGTTCTAACCTGTTGCTT (site GAGACGGCTAA) | 0.0584
9 | AAGTTTCCTTGGGTTCTAACCTGTTGCGT (site AAGTTTCCTAC) | 0.923
10 | CACTTAACTTGGGTTCTAACCTGTTGCCT (site CACTTAACTAG) | 0.8
11 | CTATTAACTTGGGTTCTAACCTGTTGCTA (site ACTCACCCTCC) | 0.00656
12 | TACTTCCCTTGGGTTCTAACCTGTTGCGT (site TACTTCCCTAC) | 1.87
13 | CGAAAATCTTGGGTTCTAACCTGTTGCCT (site CGGAAATCTAG) | 0.18
14 | AGGGCCTCTTGGGTTCTAACCTGTTGCAG (site AGGGCCTCTCT) | 2.73
15 | CAGTATTCTTGGGTTCTAACCTGTTGCCT (site CAGTACTCTAG) | 0.116
16 | CAAACACCTTGGGTTCTAACCTGTTGCCT (site CAAACACCTAG) | 1.46
17 | GAGTTCGCTTGGGTTCTAACCTGTTGCGG (site GAGTTCGCTCC) | 1.08
18 | TCAGACCCTTGGGTTCTAACCTGTTGCCT (site TAAGACCCTAG) | 0.417
19 | CGATCATCTTGGGTTCTAACCTGTTGCCT (site CGTTCATCTAG) | 0.0823
20 | AACTTCTCTTGGGTTCTAACCTGTTGCCT (site AACTTCACTAG) | 0.184
21 | GCACACCCTTGGGTTCTAACCTGTTGCCT (site GCACACCCTAG) | 1.1
22 | GTTAACTCTTGGGTTCTAACCTGTTGCCT (site GTAAACTCTAG) | 0.2

Row | Sequence | recombinant barcode read abundance (log10)
23 | GGAGAGTCTTGGGTTCTAACCTGTTGCCT (site GAAGAGTCTAG) | 2.17
24 | TAGTACACTTGGGTTCTAACCTGTTGCAC (site TAGTACACTGT) | 1.55
25 | CTACGGACTTGGGTTCTAACCTGTTGCTG (site CTACGAACTCA) | 1.82
26 | TCCGAGGCTTGGGTTCTAACCTGTTGCTG (site TCAGAGGCTCA) | 0.266
27 | AACAATACTTGGGTTCTAACCTGTTGCCT (site CTGTGAGCTCT) | 0.0738
28 | TTGGCCACTTGGGTTCTAACCTGTTGCCT (site TTGGTCACTAG) | 0.0232
29 | ATGAAGCCTTGGGTTCTAACCTGTTGCCT (site TTGAAGCCTAG) | 0.503
30 | TAAGGGACTTGGGTTCTAACCTGTTGCTA (site TAAGGGACTTA) | 2.26
31 | CCAAGCCCTTGGGTTCTAACCTGTTGCCT (site CCAAGCACTAG) | 0.202
32 | GTTTATACTTGGGTTCTAACCTGTTGCCA (site AGAGTAGCTGT) | 0.0898
33 | GAGCGTCCTTGGGTTCTAACCTGTTGCAG (site GAGTTTCCTCT) | 0.0296
34 | GTGTATCCTTGGGTTCTAACCTGTTGCTT (site GTGTATCCTAA) | 0.664
35 | TATGCTACTTGGGTTCTAACCTGTTGCAT (site TATGCTACTAT) | 0.371
36 | GCCTGAGCTTGGGTTCTAACCTGTTGCCT (site GCATGAGCTAG) | 0
37 | TGGCTAGCTTGGGTTCTAACCTGTTGCCT (site TGTCTAGCTAG) | 0.0845
38 | ATACGTACTTGGGTTCTAACCTGTTGCCT (site CTACGTACTAG) | 0.0799
39 | CTATTCCCTTGGGTTCTAACCTGTTGCTG (site CTCTTCCCTAA) | 0.185
40 | TATAACTCTTGGGTTCTAACCTGTTGCCT (site CATAACTCTAG) | 0.198
41 | GTGTGTCCTTGGGTTCTAACCTGTTGCAT (site GTGTTTCCTAT) | 0.052
42 | GAGTGGCCTTGGGTTCTAACCTGTTGCTT (site GAGTGGCCTAG) | 0.068
43 | TAGACTGCTTGGGTTCTAACCTGTTGCCT (site TAGCCTGCTAG) | 0.224
44 | GGCAGTTCTTGGGTTCTAACCTGTTGCTT (site GGCAGCTCTAA) | 0.0661

Row | Sequence | recombinant barcode read abundance (log10)
45 | AGAGCGACTTGGGTTCTAACCTGTTGCTA (site CTCTACCCTCT) | 0.147
46 | TCGTGCCCTTGGGTTCTAACCTGTTGCCT (site TCGTGCGCTAG) | 0.165
47 | TTGCGAACTTGGGTTCTAACCTGTTGCCT (site TTGCTAACTAG) | 0.0519
48 | TCACGGTCTTGGGTTCTAACCTGTTGCCT (site TCTCGGTCTAG) | 0.0701
49 | TCCGTCCCTTGGGTTCTAACCTGTTGCAT (site TCCGTCCCTAT) | 1.4
50 | AAGAACACTTGGGTTCTAACCTGTTGCCT (site GAGAACACTAG) | 0.233
51 | TACCGGCCTTGGGTTCTAACCTGTTGCCT (site TATCGGCCTAG) | 0.166
52 | GATGGCCCTTGGGTTCTAACCTGTTGCCT (site GCTGGCCCTAG) | 0.103
53 | CCTGCGGCTTGGGTTCTAACCTGTTGCCT (site CCTGCGACTAG) | 0.0127
54 | TATAAAACTTGGGTTCTAACCTGTTGCCT (site TATATAACTAG) | 0.697
55 | CGGAATCCTTGGGTTCTAACCTGTTGCGT (site CGGAATCCTAC) | 2.33
56 | CGTTCTCCTTGGGTTCTAACCTGTTGCTA (site CGTTCTCCTTA) | 0.637
57 | CTATTTACTTGGGTTCTAACCTGTTGCCT (site CTAATTACTAG) | 0.0674
58 | GACTTGCCTTGGGTTCTAACCTGTTGCAT (site GACTTGCCTAT) | 0.313
59 | AACGCCTCTTGGGTTCTAACCTGTTGCCT (site CACGCCTCTAG) | 0.125
60 | ATCGGAGCTTGGGTTCTAACCTGTTGCTG (site ATCGGAGCTCT) | 0.627
61 | AGTTAGCCTTGGGTTCTAACCTGTTGCCT (site AGTGAGCCTAG) | 0.114
62 | CCTAAGACTTGGGTTCTAACCTGTTGCCG (site CCTAAGACTAG) | 0.343
63 | AGTTGCCCTTGGGTTCTAACCTGTTGCCT (site ATTTGCCCTAG) | 0.0653
64 | TAGTGGTCTTGGGTTCTAACCTGTTGCAT (site TAGTGGTCTAT) | 2.04
65 | CGAGTCCCTTGGGTTCTAACCTGTTGCAG (site CGAGTCCCTCT) | 2.15
66 | CAAGTAGCTTGGGTTCTAACCTGTTGCCT (site CAAGTTGCTAG) | 0.0368

Row | Sequence | recombinant barcode read abundance (log10)
67 | GTCAAGCCTTGGGTTCTAACCTGTTGCTA (site GCCAAACCTTA) | 0.345
68 | ATTAACCCTTGGGTTCTAACCTGTTGCCT (site ACTAACCCTAG) | 0.0136
69 | ATCGGAGCTTGGGTTCTAACCTGTTGCTG (site ATCGGAGCTCG) | 0.455
70 | CTAATTCCTTGGGTTCTAACCTGTTGCAT (site CTAAGTCCTAT) | 0.0341
71 | CGTATGTCTTGGGTTCTAACCTGTTGCCT (site TGTATGTCTAG) | 0.189
72 | TGAAGTACTTGGGTTCTAACCTGTTGCCT (site TGAAGTACTAG) | 0.257
73 | CTATTCGCTTGGGTTCTAACCTGTTGCCT (site CTATTCACTAG) | 0.295
74 | CTCTCGTCTTGGGTTCTAACCTGTTGCTT (site CTCTCGTCTAA) | 0.2
75 | TCGCTAGCTTGGGTTCTAACCTGTTGCCT (site TCGCTAGCTAG) | 0.0976
76 | GCGCATCCTTGGGTTCTAACCTGTTGCCT (site GCGGATCCTAG) | 0.306
77 | GATGCTTCTTGGGTTCTAACCTGTTGCTT (site AATGCTTCTAA) | 0.101
78 | AACAGTACTTGGGTTCTAACCTGTTGCCT (site CACAGTACTAG) | 0.406
79 | CCGAATGCTTGGGTTCTAACCTGTTGCCT (site CCGTATGCTAG) | 0.155
80 | TGAGTCCCTTGGGTTCTAACCTGTTGCAG (site TGAGTCCCTCT) | 2.79
81 | GGCTGTTCTTGGGTTCTAACCTGTTGCCT (site GACTGTTCTAG) | 0.195
82 | GACACGCCTTGGGTTCTAACCTGTTGCGT (site GACACGCCTAT) | 0.147
83 | GGGGCCTCTTGGGTTCTAACCTGTTGCAA (site GGGGCCTCTTT) | 2.56
84 | TACGTGTCTTGGGTTCTAACCTGTTGCCT (site TAGGTGTCTAG) | 0.0617
85 | CAGGATGCTTGGGTTCTAACCTGTTGCCT (site CACGATGCTAG) | 0.0431
86 | CCAAGGGCTTGGGTTCTAACCTGTTGCTG (site CCAAGGGCTCT) | 0.727
